The record followed here is PMC7995547, “ω‐Imidazolyl‐alkyl derivatives as new preclinical drug candidates for treating non‐alcoholic steatohepatitis” (Physiological Reports, 2021).

Each structure is given as a SMILES string.

This assay relates to HFD‐induced NASH rat model (liver). The assay can be described thus: Area of connective tissue in the liver (Mallory‐Azan staining), NASH rat model. Type of assay: in vivo, Wistar rats. As for the experimental part: Studies were done using Wistar rats of female sex by the Institute of Pharmacology and Biochemistry at Minsk. The animals were 80–90 days old and weighed 180–200 g. They had free access to a liquid Lieber‐DeCarli (LDC) diet (Lieber et al., 2004) and were housed under standard conditions meaning a 12‐h light/dark cycle at 22 ± 2°C and 55 ± 5% humidity.
Group 1 was designated as the first control group; it was fed a normal standard solid diet. Group 2, as the second control group, was fed a standard amount of fat as a part of the liquid “physiological,” non‐high fat LDC diet. All other groups received the liquid ‘disease‐causing’ LDC diet (Table 2), including a high content of unsaturated fatty acids.
Both LDC diets were in a liquid form as produced by ssniff‐Spezialdiäten GmbH, Soest (Germany). The feed was provided over the entire experimental period of 16 weeks; however, the corresponding experimental substances were only administered in the last four weeks (Figure 3).
The experimental substances I‐ol, I‐an, and UDCA were dissolved in a 0.8% aqueous HPMC gel to obtain the following concentrations: (1) I‐ol at 0.4, 4, and 40 mg/kg body weight (b.w.), (2) I‐an at 0.4, 4, and 40 mg/kg b.w., and (3) UDCA at 40 mg/kg b.w. The Group‐2 and −3 rats received only HPMC as placebo. Each test encompassed 6–8 rats that were put up in a separate cage. The rats were fed ad libitum, and their intake per cage was controlled daily. In order to ensure an exact daily reproducible dosage, the experimental substances or only HPMC was administered intragastrically via oral gavage. Basically, the drug therapy of a chronic disease is the more efficient the higher the adherence of the affected patients. This is generally higher with peroral administration than with any other form of application. At the end of the experiment, the animals were sacrificed under fasting conditions, by aorta dissection and exsanguination, after anesthetizing with an intraperitoneal injection of 5% pentobarbital solution.
Liver tissue sections were subject to the Mallory‐Azan (Heidenhain Azan) staining method for visualizing the connective tissues. This method was a modification of the original Mallory staining protocol, wherein azocarmin with a mixture of aniline blue and orange G was used. In this method, the collagen tissue and basophilic granules turn blue, the muscle tissue and acidophilic granules turn orange to red, and the cell nuclei and cytoplasm turn red. Elastic fibers remain unstained; however, they might turn yellow or pink. The proportion of positively stained liver tissue to the total area of the histological slide was determined quantitatively.

The mark [1] stands for this setting: lowest concentration (0.4 mg/kg b.w.).

As to `CCCCCCCCCCCCn1ccnc1` [I‐an, 1‐imidazolyldodecane], the “Effect on area of connective tissue in the liver (in words)” value (compound overall) was “no therapeutic effect”.
Turning to `OCCCCCCCCCCCCn1ccnc1` [I‐ol, 12‐imidazolyl‐1‐dodecanol], under setting [1], the “Decrease in area of connective tissue in the liver compared to disease group” value was 28% and the “Reduction of the effect of HFD on area of connective tissue in the liver” value is on record as 72%.
